# According to US20100210568A1, “T[…] HORMONE FOR […] APPLICATIONS” (priority 2007, published 2010):
# Tested on: drug-resistant Mycobacterium tuberculosis
# Conditions: peptide 10 micrograms per ml, seven days
compound,measurement,value
"NC(=O)[C@@H]1CCCN1C(=O)[C@H](Cc1cnc[nH]1)NC(=O)[C@@H]1CCC(=O)N1 [TRH, Pyr-His-Pro-NH2]",% inhibition,0.0%
